Laboratory results published in the NIST ThermoML archive (doi:10.1007/s10765-008-0535-5).

Test: wn = mass fraction of the nth substance listed
Conditions: Liquid, Pycnometric method, w2 = 0.5111

FC(F)C(F)(F)F [pentafluoroethane] + FCF
Conditions	mass density [kg/m3]
298.15 K, 28366 kPa	1185.5
299.15 K, 7469 kPa	1097.4
299.15 K, 7499 kPa	1097.4
299.15 K, 7541 kPa	1097.4
299.15 K, 29176 kPa	1185.2
299.15 K, 29179 kPa	1185.2
299.15 K, 29186 kPa	1185.4
300.15 K, 8097 kPa	1097.2
300.15 K, 8124 kPa	1097.2
300.15 K, 8166 kPa	1097.2
300.15 K, 29998 kPa	1185.1
300.15 K, 29999 kPa	1185.1
300.15 K, 30003 kPa	1185.2
301.15 K, 8725 kPa	1097.1
301.15 K, 8750 kPa	1097.1
301.15 K, 8791 kPa	1097.1
302.15 K, 9353 kPa	1096.9
302.15 K, 9377 kPa	1096.9
302.15 K, 9417 kPa	1096.9
303.15 K, 9980 kPa	1096.8
303.15 K, 10003 kPa	1096.8
303.15 K, 10042 kPa	1096.8
304.15 K, 10607 kPa	1096.6
304.15 K, 10629 kPa	1096.6
304.15 K, 10667 kPa	1096.7
305.15 K, 11234 kPa	1096.5
305.15 K, 11256 kPa	1096.5
305.15 K, 11292 kPa	1096.5
306.15 K, 11861 kPa	1096.4
306.15 K, 11881 kPa	1096.4
306.15 K, 11917 kPa	1096.4
307.15 K, 12487 kPa	1096.2
307.15 K, 12507 kPa	1096.2
307.15 K, 12541 kPa	1096.2
308.15 K, 13114 kPa	1096.1
308.15 K, 13133 kPa	1096.1
308.15 K, 13165 kPa	1096.1
309.15 K, 13740 kPa	1095.9
309.15 K, 13758 kPa	1095.9
309.15 K, 13790 kPa	1095.9
310.15 K, 14367 kPa	1095.8
310.15 K, 14384 kPa	1095.8
310.15 K, 14414 kPa	1095.8
311.15 K, 14992 kPa	1095.6
311.15 K, 15009 kPa	1095.7
311.15 K, 15038 kPa	1095.7
312.15 K, 15618 kPa	1095.5
312.15 K, 15634 kPa	1095.5
312.15 K, 15662 kPa	1095.5
313.15 K, 16243 kPa	1095.4
313.15 K, 16259 kPa	1095.4
313.15 K, 16286 kPa	1095.4
314.15 K, 16869 kPa	1095.2
314.15 K, 16883 kPa	1095.2
314.15 K, 16910 kPa	1095.3
315.15 K, 17493 kPa	1095.1
315.15 K, 17507 kPa	1095.1
315.15 K, 17534 kPa	1095.1
316.15 K, 18118 kPa	1095
316.15 K, 18131 kPa	1095
316.15 K, 18158 kPa	1095
317.15 K, 18743 kPa	1094.9
317.15 K, 18755 kPa	1094.9
317.15 K, 18781 kPa	1094.9
318.15 K, 19367 kPa	1094.7
318.15 K, 19379 kPa	1094.7
318.15 K, 19404 kPa	1094.8
319.15 K, 19990 kPa	1094.6
319.15 K, 20003 kPa	1094.6
319.15 K, 20027 kPa	1094.6
320.15 K, 20613 kPa	1094.5
320.15 K, 20627 kPa	1094.5
320.15 K, 20649 kPa	1094.5
321.15 K, 21236 kPa	1094.4
321.15 K, 21250 kPa	1094.4
321.15 K, 21272 kPa	1094.4
322.15 K, 21858 kPa	1094.2
322.15 K, 21873 kPa	1094.3
322.15 K, 21894 kPa	1094.3
323.15 K, 22480 kPa	1094.1
323.15 K, 22495 kPa	1094.1
323.15 K, 22516 kPa	1094.2
324.15 K, 23103 kPa	1094
324.15 K, 23117 kPa	1094
324.15 K, 23137 kPa	1094
325.15 K, 23725 kPa	1093.9
325.15 K, 23738 kPa	1093.9
325.15 K, 23758 kPa	1093.9
326.15 K, 24347 kPa	1093.8
326.15 K, 24361 kPa	1093.8
326.15 K, 24379 kPa	1093.8
327.15 K, 24970 kPa	1093.7
327.15 K, 24981 kPa	1093.7
327.15 K, 25000 kPa	1093.7
328.15 K, 25590 kPa	1093.6
328.15 K, 25601 kPa	1093.6
328.15 K, 25620 kPa	1093.6
